Measured values as given in patent publication US6486157B1, “Use of insecticides in pest control” (priority 1998, dated 2002).

Experiments:
Assay type in all cases: in vivo
Anthonomus grandis = assay: Spray test on young transgenic cotton plants, action against Anthonomus grandis adults; conditions: for control of the tested insects in the non-transgenic plant (% action): non-transgenic cotton, spray mixture of active ingredient and conventional CryIIIA-toxin, each 100, 50, 10, 5, 1 ppm, 3 to 10 days; for control of the tested insects in the transgenic plant (% action): spray 100, 50, 10, 5, 1 ppm, evaluation 3 to 10 days, compared with treated non-transgenic cotton
Description: (§1) Young transgenic cotton plants which express the δ-endotoxin CryIIIA are sprayed with an aqueous emulsion spray mixture comprising 100, 50, 10, 5, 1 ppm of profenofos respectively. After the spray coating has dried on, the cotton plants are populated with 10 adult Anthonomus grandis, 10 Spodoptera littora larvae or 10 Heliothis virescens larvae respectively and introduced into a plastic container. Evaluation takes place 3 to 10 days later. The percentage reduction in population, or the percentage reduction in feeding damage (% action), is determined by comparing the number of dead beetles and the feeding damage on the transgenic cotton plants with that of non-transgenic cotton plants which have been treated with an emulsion spray mixture comprising lufenuron and conventional CryIIIA-toxin at a concentration of in each case 100, 50, 10, 5, 1 ppm respectively.
as §1, with “pymetrozine” for “lufenuron”
as §1, with “express tho” for “express the”, “δ-endotoxin CryIa (c)” for “δ-endotoxin CryIIIA”, “of fenoxycarb” for “of profenofos”, “comprising fenoxycarb” for “comprising lufenuron”, “and con-ventional” for “and conventional”
as §1, with “δ-endotoxin CryIa(c)” for “δ-endotoxin CryIIIA”, “of fenoxycarb” for “of profenofos”, “comprising fenoxycarb” for “comprising lufenuron”
(§2) Young transgenic cotton plants which express the δ-endotoxin CryIa(c) are sprayed with an aqueous emulsion spray mixture comprising 100, 50, 10, 5, 1 ppm of pymetrozine respectively. After the spray coating has dried on, the cotton plants are populated with 10 adult Anthonomus grandis, 10 Spodoptera littora larvae or 10 Heliothis virescens larvae respectively and introduced into a plastic container. Evaluation takes place 3 to 10 days later. […]

Ostrinia nubilalis = assay: Plot test on maize cv. KnockOut vs conventional maize, action against Ostrinia nubilalis; conditions: natural infestation; for control on the plants of plot (a) (% action): plot (a) maize cv. KnockOut, spray 200, 100, 50, 10, 5, 1 ppm, evaluation 6 days later; for control level, plot (b): plot (b) conventional maize, spray 200, 100, 50, 10, 5, 1 ppm plus same ppm of the endotoxin expressed by KnockOut, 6 days
Experimental: (§3) A plot (a) planted with maize cv. KnockOut® and an adjacent plot (b) of the same size which is planted with conventional maize, both showing natural infestation with Ostrinia nubilalis, Spodoptera sp or Heliothis, are sprayed with an aqueous emulsion spray mixture comprising 200, 100, 50, 10, 5, 1 ppm of fenoxycarb . Immediately afterwards, plot (b) is treated with an emulsion spray mixture comprising 200, 100, 50, 10, 5, 1 ppm of the endotoxin expressed by KnockOut®. Evaluation takes place 6 days later. The percentage reduction in population (% action) is determined by comparing the number of dead pests on the plants of plot (a) with that on the plants of plot (b).
as §3, with “pymetrozine.” for “fenoxycarb .”
(§4) A plot (a) planted with maize cv. KnockOut® and an adjacent plot (b) of the same size which is planted with conventional maize, both showing natural infestation with Ostrinia nubilalis. Spodoptera sp or Heliothis, are sprayed with an aqueous emulsion spray mixture comprising 200, 100, 50, 10, 5, 1ppm of lufenuron. Immediately afterwards, plot (b) is treated with an emulsion spray mixture comprising 200, 100, 50, 10, 5, 1 ppm of the endotoxin expressed by KnockOut®. Evaluation takes place 6 days later. The percentage reduction in population (% action) is determined by comparing the number of dead pests on the plants of plot (a) with that on the plants of plot (b).

Heliothis spp. = assay: Plot test on maize cv. KnockOut vs conventional maize, action against Heliothis spp.; conditions: natural infestation; for control on the plants of plot (a) (% action): plot (a) maize cv. KnockOut, spray 200, 100, 50, 10, 5, 1 ppm, evaluation 6 days later; for control level, plot (b): plot (b) conventional maize, spray 200, 100, 50, 10, 5, 1 ppm plus same ppm of the endotoxin expressed by KnockOut, 6 days
Experimental: as §3
as §3, with “pymetrozine.” for “fenoxycarb .”
as §4

Spodoptera spp. = assay: Plot test on maize cv. KnockOut vs conventional maize, action against Spodoptera spp.; conditions: natural infestation; for control on the plants of plot (a) (% action): plot (a) maize cv. KnockOut, spray 200, 100, 50, 10, 5, 1 ppm, evaluation 6 days later; for control level, plot (b): plot (b) conventional maize, spray 200, 100, 50, 10, 5, 1 ppm plus same ppm of the endotoxin expressed by KnockOut, 6 days
Experimental: as §3
as §3, with “pymetrozine.” for “fenoxycarb .”
as §4

Spodoptera littoralis = assay: Spray test on young transgenic cotton plants, action against Spodoptera littoralis larvae; conditions: for control of the tested insects in the non-transgenic plant (% action): non-transgenic cotton, spray mixture of active ingredient and conventional CryIIIA-toxin, each 100, 50, 10, 5, 1 ppm, 3 to 10 days; for control of the tested insects in the transgenic plant (% action): spray 100, 50, 10, 5, 1 ppm, evaluation 3 to 10 days, compared with treated non-transgenic cotton
Description: as §1
as §1, with “pymetrozine” for “lufenuron”
as §1, with “express tho” for “express the”, “δ-endotoxin CryIa (c)” for “δ-endotoxin CryIIIA”, “of fenoxycarb” for “of profenofos”, “comprising fenoxycarb” for “comprising lufenuron”, “and con-ventional” for “and conventional”
as §1, with “δ-endotoxin CryIa(c)” for “δ-endotoxin CryIIIA”, “of fenoxycarb” for “of profenofos”, “comprising fenoxycarb” for “comprising lufenuron”
as §2

Heliothis virescens = assay: Spray test on young transgenic cotton plants, action against Heliothis virescens larvae; conditions: for control of the tested insects in the non-transgenic plant (% action): non-transgenic cotton, spray mixture of active ingredient and conventional CryIIIA-toxin, each 100, 50, 10, 5, 1 ppm, 3 to 10 days; for control of the tested insects in the transgenic plant (% action): spray 100, 50, 10, 5, 1 ppm, evaluation 3 to 10 days, compared with treated non-transgenic cotton
Description: as §1
as §1, with “pymetrozine” for “lufenuron”
as §1, with “express tho” for “express the”, “δ-endotoxin CryIa (c)” for “δ-endotoxin CryIIIA”, “of fenoxycarb” for “of profenofos”, “comprising fenoxycarb” for “comprising lufenuron”, “and con-ventional” for “and conventional”
as §1, with “δ-endotoxin CryIa(c)” for “δ-endotoxin CryIIIA”, “of fenoxycarb” for “of profenofos”, “comprising fenoxycarb” for “comprising lufenuron”
as §2

[1] = tested on: Frankliniella occidentalis; assay: Transgenic vs conventional cotton seedlings, action against Frankliniella occidentalis; conditions: 20° C.; for control on the plants of plot (a) (% action): spray 400 ppm, evaluated after 3 and 6 days; for control level, plot (b): plot (b) conventional cotton seedlings, 3 and 6 days
Experimental: (§5) Cotton seedlings expressing the δ-endotoxin Crylila on a plot (a) and conventional cotton seedlings on a plot (b) are infected with Frankliniella occidentalis and subsequently sprayed with a spray mixture comprising 400 ppm lufenuron. Immediately afterwards, plot (b) is treated with an emulsion spray mixture comprising 400 ppm of the S-endotoxin CrylIla. The seedlings of plot (a) and (b) are then incubated at 20° C. The test is evaluated after 3 and 6 days.
(§6) The percentage reduction in population (% action) is determined by comparing the number of dead pests on the plants of plot (a) with that on the plants of plot (b).
as §5, with “CryIa(c)” for “Crylila”, “δ-endotoxin CryIa(c).” for “S-endotoxin CrylIla.”

Aphis gossypii = assay: Transgenic vs conventional cotton seedlings, action against Aphis gossypii; conditions: 20° C.; for control on the plants of plot (a) (% action): spray 400 ppm, evaluated after 3 and 6 days; for control level, plot (b): plot (b) conventional cotton seedlings, 3 and 6 days
Experimental: (§7) Cotton seedlings on a plot (a) expressing the δ-endotoxin CryllIa on a plot (a) and conven-tional cotton seedlings on a plot (b) are infected with Aphis gossypi and subsequently sprayed with a spray mixture comprising 400 ppm pymetrozine. immediately afterwards, plot (b) is treated with an emulsion spray mixture comprising 400 ppm of the δ-endotoxin Crylila. The seedlings of plot (a) and (b) are then incubated at 20° C. The test is evaluated after 3 and 6 days.
as §6
as §7, with “seedlings” for “seedlings on a plot (a)”, “CryIA(c)” for “CryllIa”, “conventional” for “conven-tional”, “gossypii” for “gossypi”, “Immediately” for “immediately”, “[…].” for “Crylila.”

[2] = transgenic cotton expressing δ-endotoxin CryIa(c)
[3] = plot (a) cotton seedlings expressing δ-endotoxin CryIa(c)
[4] = transgenic cotton expressing δ-endotoxin CryIIIA

SMILES	control of the tested insects in the non-transgenic plant (% action) (Anthonomus grandis)	control of the tested insects in the transgenic plant (% action) (Anthonomus grandis; [2])	control on the plants of plot (a) (% action) (Ostrinia nubilalis)	control level, plot (b) (Ostrinia nubilalis) [%]	control on the plants of plot (a) (% action) (Heliothis spp.)	control level, plot (b) (Heliothis spp.) [%]	control on the plants of plot (a) (% action) (Spodoptera spp.)	control level, plot (b) (Spodoptera spp.) [%]	control of the tested insects in the non-transgenic plant (% action) (Spodoptera littoralis)	control of the tested insects in the transgenic plant (% action) (Spodoptera littoralis; [2])	control of the tested insects in the non-transgenic plant (% action) (Heliothis virescens)	control of the tested insects in the transgenic plant (% action) (Heliothis virescens; [2])	other results
CCOC(=O)NCCOc1ccc(Oc2ccccc2)cc1 [fenoxycarb, Ethyl 2-(4-Phenoxyphenoxy)ethylcarbamat]	insufficient	superior	Improved control	≤ 60	Improved control	≤ 60	Improved control	≤ 60	insufficient	superior	insufficient	superior	
O=C(NC(=O)c1c(F)cccc1F)Nc1cc(Cl)c(OC(F)(F)C(F)C(F)(F)F)cc1Cl (centres unmarked) [lufenuron]	insufficient	superior	Improved control	≤ 60	Improved control	≤ 60	Improved control	≤ 60	insufficient	superior	insufficient	superior	control on the plants of plot (a) (% action) [1, 3]: Improved control; control on the plants of plot (a) (% action) ([1]; plot (a) cotton seedlings expressing δ-endotoxin Crylila): Improved control; control level, plot (b) ([1]; spray 400 ppm plus 400 ppm of endotoxin CrylIla): ≤ 60%; control level, plot (b) ([1]; spray 400 ppm plus 400 ppm of δ-endotoxin CryIa(c)): ≤ 60%
CCCSP(=O)(OCC)Oc1ccc(Br)cc1Cl (centres unmarked) [profenofos, O-4-Brom-2-chlorphenyl O-Ethyl S-Propyl Phosphorothioat]													control of the tested insects in the transgenic plant (% action) (Anthonomus grandis; [4]): superior; control of the tested insects in the transgenic plant (% action) (Spodoptera littoralis; [4]): superior; control of the tested insects in the transgenic plant (% action) (Heliothis virescens; [4]): superior
CC1=NNC(=O)N(N=Cc2cccnc2)C1 [pymetrozine, 2,3,4,5-Tetrahydro-3-oxo-4-[(pyridin-3-yl)-methylenamino]-6-methyl-1,2,4-triazin]	insufficient	superior	Improved control	≤ 60	Improved control	≤ 60	Improved control	≤ 60	insufficient	superior	insufficient	superior	control on the plants of plot (a) (% action) (Aphis gossypii; [3]): Improved control; control on the plants of plot (a) (% action) (Aphis gossypii; plot (a) cotton seedlings expressing δ-endotoxin CryllIa): Improved control; control level, plot (b) (Aphis gossypii; spray 400 ppm plus 400 ppm of δ-endotoxin Crylila): ≤ 60%; control level, plot (b) (Aphis gossypii; spray 400 ppm plus 400 ppm of δ-endotoxin Crylla): ≤ 60%
